We go through 17 molecules from patent US12570655B2, “Cysteine covalent modifiers of AKT1 and uses thereof” (Terremoto Biosciences, Inc., priority 2023, dated 2026).

Type in all cases: cell-based
For one assay, the target named is T1, AKT1 E17K (Homo sapiens, UniProt P31749, E17K).
T1 construct: expressed in transfected cells; host or cells: HEK293
The experiment in a line: Live cell AKT1 E17K target engagement by NanoBRET competitive probe displacement. Conditions: HEK293 cells transfected with kinase-NanoLuciferase fusion, 2 h at 37° C. The essentials:
(§1)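 Steps: overnight transfection of HEK293 with kinase-NanoLuc plasmids; addition of compound dilutions and tracer (~EC50); 2 h incubation at 37 °C; substrate plus extracellular luciferase inhibitor; luminescence at 460 and 600 nm. IC50 values came from fitting the BRET ratio to a Hill equation.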

The target in a further assay is T2, AKT2 (Homo sapiens, UniProt P31751).
T2 construct: expressed in transfected cells; host or cells: HEK293
The experiment in a line: Live cell AKT2 target engagement by NanoBRET competitive probe displacement. To be noted: HEK293 cells transfected with kinase-NanoLuciferase fusion, 2 h at 37° C. In short, it runs like this: as §1

A further assay concerns the target T3, AKT1 WT (Homo sapiens, UniProt P31749).
T3 construct: expressed in transfected cells; host or cells: HEK293
The experiment in a line: Live cell AKT1 WT target engagement by NanoBRET competitive probe displacement. To be noted: HEK293 cells transfected with kinase-NanoLuciferase fusion, 2 h at 37° C. In short, it runs like this:
as §1

The test system of assay [1] is LAPC4 prostate cancer cells. The experiment in a line: Antiproliferative effects in LAPC4 cells (CellTiter Glo). To be noted: LAPC4 cells (AKT1 E17K allele), read-out: LAPC4 proliferation IC50. In short, it runs like this: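 Growth inhibition is gauged by intracellular ATP content, measured with CellTiter Glo 72 h after compound addition to 1,000 seeded cells per well. IC50 derives from a Hill equation fit.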

Where two headings read alike, the source gives them in different places.

T3 sequence (P31749 whole entry): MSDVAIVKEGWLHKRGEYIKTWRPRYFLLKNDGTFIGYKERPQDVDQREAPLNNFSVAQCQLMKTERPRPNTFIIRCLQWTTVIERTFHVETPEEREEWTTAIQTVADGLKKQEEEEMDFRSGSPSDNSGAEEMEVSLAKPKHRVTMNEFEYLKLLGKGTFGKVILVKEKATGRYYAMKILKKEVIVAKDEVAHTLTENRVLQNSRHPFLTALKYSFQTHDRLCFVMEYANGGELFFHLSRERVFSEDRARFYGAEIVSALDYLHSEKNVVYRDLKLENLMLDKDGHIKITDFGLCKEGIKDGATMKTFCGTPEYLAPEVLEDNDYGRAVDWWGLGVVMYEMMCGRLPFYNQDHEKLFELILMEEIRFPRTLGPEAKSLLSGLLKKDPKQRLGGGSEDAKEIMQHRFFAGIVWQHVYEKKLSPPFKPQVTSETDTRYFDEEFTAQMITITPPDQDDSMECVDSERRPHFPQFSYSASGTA
T2 sequence (P31751 whole entry): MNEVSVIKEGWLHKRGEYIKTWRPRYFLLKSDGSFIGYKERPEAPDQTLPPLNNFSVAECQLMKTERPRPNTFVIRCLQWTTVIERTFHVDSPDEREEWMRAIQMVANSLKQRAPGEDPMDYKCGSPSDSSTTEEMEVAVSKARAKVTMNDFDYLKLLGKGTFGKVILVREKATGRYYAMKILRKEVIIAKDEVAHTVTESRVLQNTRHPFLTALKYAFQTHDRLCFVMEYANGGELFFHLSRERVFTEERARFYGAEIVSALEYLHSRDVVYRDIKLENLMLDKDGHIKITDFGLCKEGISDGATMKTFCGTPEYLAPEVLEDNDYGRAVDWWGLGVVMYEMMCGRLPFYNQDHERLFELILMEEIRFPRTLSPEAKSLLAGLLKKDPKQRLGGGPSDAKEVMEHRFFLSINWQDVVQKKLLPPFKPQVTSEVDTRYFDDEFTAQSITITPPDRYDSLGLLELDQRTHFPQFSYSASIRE
T1 sequence (P31749 whole entry E17K): as the sequence (P31749 whole entry) above, with E17K counted along it

Take `C=CC(=O)N1CCC(N[C@@H]2c3ccc(-n4c(-c5cccnc5N)nc5ccc(-n6ccc(C#N)n6)nc54)cc3CC2F)CC1` (single isomer, unassigned) [Example 312, 1-(3-((1R,2*)-1-((1-acryloylpiperidin-4-yl)amino)-2-fluoro-2,3-dihydro-1H-inden-5-yl)-2-(2-aminopyridin-3-yl)-3H-imidazo[4,5-b]pyridin-5-yl)-1H-pyrazole-3-carbonitrile]: the IC50 on AKT1 E17K was 11.6 nM; on AKT2 it was 102 nM; on AKT1 WT, 652 nM; in assay [1] (72 h) it was 440 nM.

With `C=CC(=O)N1CCC(N[C@@H]2c3ccc(-n4c(-c5cccnc5N)nc5ccc(-n6cccn6)nc54)cc3CC2F)C(C)C1` (single isomer, unassigned) [Example 288, 1-[(3*,4*)-4-{[(1R,2*)-5-[2-(2-aminopyridin-3-yl)-5-(pyrazol-1-yl)imidazo[4,5-b]pyridin-3-yl]-2-fluoro-2,3-dihydro-1H-inden-1-yl]amino}-3-methylpiperidin-1-yl]prop-2-en-1-one], the IC50 on AKT1 E17K was 38 nM; on AKT2, 212 nM; at AKT1 WT, 2090 nM; in assay [1] (72 h) it was 1530 nM.

For the molecule `C=CC(=O)N1CCC(N[C@@H]2c3ccc(-n4c(-c5cccnc5N)nc5ccc(-n6cccn6)nc54)cc3C[C@H]2F)CC1` [Example 75, 1-(4-(((1R,2R)-5-(2-(2-aminopyridin-3-yl)-5-(1H-pyrazol-1-yl)-3H-imidazo[4,5-b]pyridin-3-yl)-2-fluoro-2,3-dihydro-1H-inden-1-yl)amino)piperidin-1-yl)prop-2-en-1-one], the IC50 at AKT1 E17K is 35.9 nM; at AKT2 it was 511 nM; on AKT1 WT it was 20 nM; in assay [1] (Homo sapiens, LAPC4, 72 h), 287 nM.

As to `C=CC(=O)N1CCC(N[C@H]2CCc3cc(-n4c(-c5cccnc5N)nc5ccc(N6CCOCC6)nc54)ccc32)CC1` [Example 86, (S)-1-(4-((5-(2-(2-aminopyridin-3-yl)-5-morpholino-3H-imidazo[4,5-b]pyridin-3-yl)-2,3-dihydro-1H-inden-1-yl)amino)piperidin-1-yl)prop-2-en-1-one], the IC50 was determined as 153 nM at AKT1 E17K; 584 nM at AKT2; 13.7 nM at AKT1 WT; 180 nM in assay [1] (Homo sapiens, LAPC4, 72 h).

Turning to `C=CC(=O)Nc1cccc(C(=O)N[C@H]2CCc3cc(-n4c(-c5cccnc5N)nc5ccc(-n6cccn6)nc54)ccc32)c1` [Example 2, (S)-3-acrylamido-N-(5-(2-(2-aminopyridin-3-yl)-5-(1H-pyrazol-1-yl)-3H-imidazo[4,5-b]pyridin-3-yl)-2,3-dihydro-1H-inden-1-yl)benzamide], the IC50 on AKT1 E17K came out at 22.7 nM; on AKT2, 117 nM; at AKT1 WT it was 18.7 nM; in assay [1] (Homo sapiens, LAPC4, 72 h) it was 189 nM.

For `C=C(F)C(=O)Nc1cccc(C(=O)N[C@H]2CCc3cc(-n4c(-c5cccnc5N)nc5ccc(-n6cccn6)nc54)ccc32)c1` [Example 8, (S)-N-(5-(2-(2-aminopyridin-3-yl)-5-(1H-pyrazol-1-yl)-3H-imidazo[4,5-b]pyridin-3-yl)-2,3-dihydro-1H-inden-1-yl)-3-(2-fluoroacrylamido)benzamide], the IC50 was determined as 112 nM at AKT1 E17K; 71.5 nM on AKT2; 7.07 nM at AKT1 WT; 1120 nM in assay [1] (Homo sapiens, LAPC4, 72 h).

On to `C=CC(=O)N1CCCc2cccc(C(=O)N[C@H]3CCc4cc(-n5c(-c6cccnc6N)nc6ccc(-n7cccn7)nc65)ccc43)c21` [Example 40, N-[(1S)-5-[2-(2-aminopyridin-3-yl)-5-(pyrazol-1-yl)imidazo[4,5-b]pyridin-3-yl]-2,3-dihydro-1H-inden-1-yl]-1-(prop-2-enoyl)-3,4-dihydro-2H-quinoline-8-carboxamide], for which the IC50 came out at 94 nM at AKT1 E17K; 265 nM at AKT2; 48.1 nM at AKT1 WT; 948 nM in assay [1] (Homo sapiens, LAPC4, 72 h).

As to `C=CC(=O)N1CC2CCC(C1)C2N[C@H]1CCc2cc(-n3c(-c4cccnc4N)nc4ccc(-n5cccn5)nc43)ccc21` (stereo partly drawn) [Example 14, 1-(8-{[(1S)-5-[2-(2-aminopyridin-3-yl)-5-(pyrazol-1-yl)imidazo[4,5-b]pyridin-3-yl]-2,3-dihydro-1H-inden-1-yl]amino}-3-azabicyclo[3.2.1]octan-3-yl)prop-2-en-1-one], the IC50 on AKT1 E17K is 436 nM; on AKT2, 1420 nM; on AKT1 WT, 85.3 nM; in assay [1] (Homo sapiens, LAPC4, 72 h), 1160 nM.

In the case of `C=CC(=O)N1CCC(N[C@@H]2c3ccc(-n4c(-c5cccnc5N)nc5ccc(-n6ccc(F)n6)nc54)cc3CC2F)C[C@@H]1C` (single isomer, unassigned) [Example 273, 1-((2S,4*)-4-(((1R,2*)-5-(2-(2-aminopyridin-3-yl)-5-(3-fluoro-1H-pyrazol-1-yl)-3H-imidazo[4,5-b]pyridin-3-yl)-2-fluoro-2,3-dihydro-1H-inden-1-yl)amino)-2-methylpiperidin-1-yl)prop-2-en-1-one], the IC50 at AKT1 E17K stood at 11.5 nM; on AKT2, 27.9 nM; at AKT1 WT, 157 nM; in assay [1] (72 h), 134 nM.

As to `C=CC(=O)N1CCC(N[C@H]2CCc3cc(-n4c(-c5cccc(F)c5)nc5ccc(-n6cccn6)nc54)ccc32)CC1` [Example 240, 1-(4-{[(1S)-5-[2-(3-fluorophenyl)-5-(pyrazol-1-yl)imidazo[4,5-b]pyridin-3-yl]-2,3-dihydro-1H-inden-1-yl]amino}piperidin-1-yl)prop-2-en-1-one], the IC50 was found to be 42.6 nM at AKT1 E17K; 309 nM on AKT2; 2540 nM on AKT1 WT; 1040 nM in assay [1] (Homo sapiens, LAPC4, 72 h).

As to `C=CC(=O)N1CCC(N[C@H]2CCc3cc(-n4c(-c5cccnc5N)nc5ccc(-c6cnccn6)nc54)ccc32)CC1` [Example 120, (S)-1-(4-((5-(2-(2-aminopyridin-3-yl)-5-(pyrazin-2-yl)-3H-imidazo[4,5-b]pyridin-3-yl)-2,3-dihydro-1H-inden-1-yl)amino)piperidin-1-yl)prop-2-en-1-one], the IC50 on AKT1 E17K came out at 185 nM; on AKT2 it was 885 nM; at AKT1 WT it was 23.6 nM; in assay [1] (Homo sapiens, LAPC4, 72 h), 814 nM.

For the molecule `C=CC(=O)N1CCC(NC2c3ccc(-n4c(-c5cccnc5N)nc5ccc(-n6cccn6)nc54)cc3CC2O)CC1` (single isomer, unassigned) [Example 151, 1-(4-(((1*,2*)-5-(2-(2-aminopyridin-3-yl)-5-(1H-pyrazol-1-yl)-3H-imidazo[4,5-b]pyridin-3-yl)-2-hydroxy-2,3-dihydro-1H-inden-1-yl)amino)piperidin-1-yl)prop-2-en-1-one], the IC50 on AKT1 E17K was greater than 1000 nM; on AKT2 it was greater than 10000 nM; on AKT1 WT it was greater than 1000 nM; in assay [1] (72 h), greater than 10000 nM.

`C=CC(=O)N1CCC(N[C@@H]2c3ccc(-n4c(-c5cccnc5N)nc5ccc(-n6ccc(F)n6)nc54)cc3CC2F)CC1` (single isomer, unassigned) [Example 237, 1-(4-(((1R,2*)-5-(2-(2-aminopyridin-3-yl)-5-(3-fluoro-1H-pyrazol-1-yl)-3H-imidazo[4,5-b]pyridin-3-yl)-2-fluoro-2,3-dihydro-1H-inden-1-yl)amino)piperidin-1-yl)prop-2-en-1-one]: the IC50 is 17.7 nM on AKT1 E17K, 89.5 nM at AKT2, 542 nM at AKT1 WT and 362 nM in assay [1] (72 h).

For the molecule `C=CC(=O)N1C[C@H]2COC[C@@H](C1)C2N[C@H]1CCc2cc(-n3c(-c4cccnc4N)nc4ccc(-n5cccn5)nc43)ccc21` (single isomer, unassigned) [Example 73, 1-((1R,5S,9*)-9-(((S)-5-(2-(2-aminopyridin-3-yl)-5-(1H-pyrazol-1-yl)-3H-imidazo[4,5-b]pyridin-3-yl)-2,3-dihydro-1H-inden-1-yl)amino)-3-oxa-7-azabicyclo[3.3.1]nonan-7-yl)prop-2-en-1-one], the IC50 on AKT1 E17K was 19 nM; on AKT2 it was 86.3 nM; at AKT1 WT, 16 nM; in assay [1] (72 h), 74.4 nM.

As to `C=CC(=O)N(C)c1ccccc1C(=O)N[C@H]1CCc2cc(-n3c(-c4cccnc4N)nc4ccc(-n5cccn5)nc43)ccc21` [Example 4, (S)-N-(5-(2-(2-aminopyridin-3-yl)-5-(1H-pyrazol-1-yl)-3H-imidazo[4,5-b]pyridin-3-yl)-2,3-dihydro-1H-inden-1-yl)-2-(N-methylacrylamido)benzamide], the IC50 on AKT1 E17K was determined as 823 nM; on AKT2, 3750 nM; on AKT1 WT, 212 nM; in assay [1] (Homo sapiens, LAPC4, 72 h), 4210 nM.

For `C=CC(=O)N1CCC(N[C@H]2CCc3cc(-n4c(-c5cccnc5N)nc5ccc(-n6ccc(OC)n6)nc54)ccc32)CC1` [Example 206, 1-(4-{[(1S)-5-[2-(2-aminopyridin-3-yl)-5-(3-methoxypyrazol-1-yl)imidazo[4,5-b]pyridin-3-yl]-2,3-dihydro-1H-inden-1-yl]amino}piperidin-1-yl)prop-2-en-1-one], the IC50 at AKT1 E17K came to 7.65 nM; at AKT2 it was 24.8 nM; on AKT1 WT, 80.5 nM; in assay [1] (Homo sapiens, LAPC4, 72 h) it was 62.7 nM.

With `C=CC(=O)N1CCc2c(C(=O)N[C@H]3CCc4cc(-n5c(-c6cccnc6N)nc6ccc(-n7cccn7)nc65)ccc43)cccc21` [Example 3, N-[(1S)-5-[2-(2-aminopyridin-3-yl)-5-(pyrazol-1-yl)imidazo[4,5-b]pyridin-3-yl]-2,3-dihydro-1H-inden-1-yl]-1-(prop-2-enoyl)-2,3-dihydroindole-4-carboxamide], the IC50 at AKT1 E17K was 32.8 nM; at AKT2, 70 nM; on AKT1 WT it was 15.1 nM; in assay [1] (Homo sapiens, LAPC4, 72 h), 833 nM.
